Assay results from ChEMBL document CHEMBL1137310, “Stereoselective chemoenzymatic synthesis of the four stereoisomers of l-2-(2-carboxycyclobutyl)glycine and pharmacological characterization at human excitatory amino acid transporter subtypes 1, 2, and 3” (J Med Chem, 2006).

Assays:
[1] = target: Excitatory amino acid transporter 1 (Homo sapiens) (UniProt P43003); experiment: Substrate activity at human EAAT1 expressed in HEK293 cells by FLIPR membrane potential assay; assay type: functional, cell-based
[2] = target: Excitatory amino acid transporter 1 (Homo sapiens) (UniProt P43003); experiment: Substrate activity at human EAAT1 expressed in HEK293 cells relative to glutamate by FLIPR membrane potential assay; assay type: functional, cell-based
[3] = target: Excitatory amino acid transporter 1 (Homo sapiens) (UniProt P43003); experiment: Substrate activity at human EAAT1 expressed in HEK293 cells at 1000 uM relative to glutamate by FLIPR membrane potential assay; assay type: functional, cell-based
[4] = target: T1, Excitatory amino acid transporter 3 (Homo sapiens) (UniProt P43005); experiment: Substrate activity at human EAAT3 expressed in HEK293 cells at 1000 uM relative to glutamate by FLIPR membrane potential assay; assay type: functional, cell-based
T1 sequence (whole entry): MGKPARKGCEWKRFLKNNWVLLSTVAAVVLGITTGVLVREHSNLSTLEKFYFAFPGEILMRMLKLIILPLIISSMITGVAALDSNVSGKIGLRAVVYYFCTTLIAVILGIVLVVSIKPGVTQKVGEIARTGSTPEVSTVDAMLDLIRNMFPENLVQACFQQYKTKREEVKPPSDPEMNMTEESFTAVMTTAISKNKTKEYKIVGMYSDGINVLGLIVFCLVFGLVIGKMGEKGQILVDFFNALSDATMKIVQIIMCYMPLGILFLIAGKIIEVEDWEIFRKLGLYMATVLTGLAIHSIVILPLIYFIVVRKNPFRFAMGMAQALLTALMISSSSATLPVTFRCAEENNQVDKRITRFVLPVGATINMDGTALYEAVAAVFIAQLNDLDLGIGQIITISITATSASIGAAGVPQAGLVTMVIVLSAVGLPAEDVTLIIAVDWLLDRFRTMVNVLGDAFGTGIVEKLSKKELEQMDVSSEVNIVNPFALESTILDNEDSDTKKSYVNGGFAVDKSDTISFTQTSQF

[5] = target: T1, Excitatory amino acid transporter 3 (Homo sapiens); experiment: Substrate activity at human EAAT3 expressed in HEK293 cells by FLIPR membrane potential assay; assay type: functional, cell-based
[6] = target: Excitatory amino acid transporter 2 (Homo sapiens) (UniProt P43004); conditions: HEK293
Sequence of Excitatory amino acid transporter 2 (Homo sapiens) (P43004 whole entry): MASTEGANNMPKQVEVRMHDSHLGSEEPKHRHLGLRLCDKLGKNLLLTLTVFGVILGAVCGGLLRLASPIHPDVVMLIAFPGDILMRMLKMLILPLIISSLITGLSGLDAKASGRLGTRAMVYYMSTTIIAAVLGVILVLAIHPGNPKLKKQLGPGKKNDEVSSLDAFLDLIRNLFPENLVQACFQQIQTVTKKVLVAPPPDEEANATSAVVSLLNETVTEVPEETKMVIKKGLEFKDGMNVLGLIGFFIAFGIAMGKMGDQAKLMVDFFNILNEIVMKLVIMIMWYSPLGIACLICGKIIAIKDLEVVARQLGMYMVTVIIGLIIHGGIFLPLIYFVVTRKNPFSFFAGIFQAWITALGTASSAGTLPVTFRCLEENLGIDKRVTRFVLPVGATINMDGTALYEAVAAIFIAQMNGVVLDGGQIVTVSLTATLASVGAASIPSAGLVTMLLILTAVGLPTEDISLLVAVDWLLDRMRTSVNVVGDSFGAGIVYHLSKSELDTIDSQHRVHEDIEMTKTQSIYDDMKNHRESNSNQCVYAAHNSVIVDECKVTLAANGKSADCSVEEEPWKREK
Description: Substrate activity at human EAAT2 expressed in HEK293 cells by FLIPR membrane potential assay

Sequence of Excitatory amino acid transporter 1 (Homo sapiens) (P43003 whole entry): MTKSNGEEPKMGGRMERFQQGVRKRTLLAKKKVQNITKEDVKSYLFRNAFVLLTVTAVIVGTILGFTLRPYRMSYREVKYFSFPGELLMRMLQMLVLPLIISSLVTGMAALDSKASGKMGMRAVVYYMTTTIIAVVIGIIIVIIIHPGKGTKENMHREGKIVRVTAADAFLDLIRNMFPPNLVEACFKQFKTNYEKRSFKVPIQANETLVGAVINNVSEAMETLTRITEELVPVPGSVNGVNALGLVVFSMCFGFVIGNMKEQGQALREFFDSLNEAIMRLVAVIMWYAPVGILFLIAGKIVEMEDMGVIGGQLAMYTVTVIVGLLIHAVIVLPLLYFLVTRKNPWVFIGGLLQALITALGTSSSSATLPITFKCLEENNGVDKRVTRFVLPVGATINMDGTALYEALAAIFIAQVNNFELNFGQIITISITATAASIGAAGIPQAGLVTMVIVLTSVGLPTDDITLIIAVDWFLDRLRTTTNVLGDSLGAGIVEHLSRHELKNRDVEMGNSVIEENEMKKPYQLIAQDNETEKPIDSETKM

`N[C@H](C(=O)O)[C@@H]1CC[C@H]1C(=O)O` gave a pKm [1] of 4 and an Activity [2] of 94%.

In the case of `N[C@H](C(=O)O)[C@H]1CC[C@@H]1C(=O)O`, the Activity [3] is reported as 72% and the Activity [4] is reported as 48%.

`N[C@@H](CCC(=O)O)C(=O)O` showed a pKm [1] of 5.1, a pKm [5] of 5 and a pKm [6] of 4.7.
